Article PMC10412585 (Nature Communications, 2023)

Columns and labels:
[1] = test system: HLA-E; assay: Prometheus differential scanning fluorimetry of HLA-E with peptide; assay type: binding, human; conditions: refolded HLA-E*01:03/β2M 9 μg, 50x peptide to MHC ratio, high sensitivity capillary, 1 °C per minute 20-95 °C, first inflection point; DMSO control 33.8
Procedure: Differential scanning fluorimetry (DSF) experiments were performed with a Prometheus NanoTemper NT.48 (Munich, Germany) to measure protein stability, using intrinsic tryptophan fluorescence.
For these experiments, refolded empty HLA-E was generated. Human β2M plus a poly-histidine tag and HLA-E*01:03 extracellular α1, α2, and α3 domains plus an AviTag biotinylation tag were separately codon optimized for E. coli and cloned into the bacterial expression vector pET28a. Inclusion bodies for HLA-E and β2M were made in BL21 E. coli. Inclusion bodies were purified, homogenized, and dissolved, including denaturation in 8 M urea solution. Before refolding, each IB was mixed with an equal volume of Gdn-Cl solution (6 M Guanidine HCl, 500 mM Tris, 2 mM EDTA, 100 mM NaCl) and incubated overnight at 37 °C. β2M was injected dropwise with a 27-gauge needle into refolding buffer (100 mM pH 8.3 Tris, 400 mM L-arginine hydrochloride, 2 mM EDTA, 0.5 mM oxidized glutathione, 5 mM reduced glutathione, 0.2 mM PMSF) and incubated, stirring gently, at 4 °C for 1 h, after which an equal mass of HLA-E heavy chain was similarly injected. This solution incubated at 4 °C overnight, followed by two days of dialysis in 10 mM Tris + 50 mM NaCl. Protein was concentrated in 10 kDa molecular weight cutoff centrifugal concentrators and purified by size exclusion chromatography on an AKTAPURE FPLC (GE Healthcare, Chicago IL), using an S200 column followed by a S75 column.
Individual DSF reactions were set up with 9 μg of MHC and 100×, 50×, or 10× peptide to MHC ratio by molarity (peptides from GenScript). The final reaction volume was 20 μL and reaction mixtures were incubated at room temperature for 20–30 min.
Prometheus excitation power was set such that raw fluorescence counts were between 8000–15000 for each sample. Samples were heated at 1 °C per minute, from 20–95 °C. DSF measurements were taken in duplicate with high-sensitivity and standard capillaries. Melting temperatures were similar for a given peptide across conditions, and representative data from 50x ratio in high sensitivity capillary are presented. A secondary inflection point around 60 °C in most melts is consistent with melting of β2M[76]. […]
Supplemental Figure 9. Differential scanning fluorimetry data generated via Prometheus NanoTemper for predicted peptides with HLA-E. a) Raw 350/330 nm ratios and first derivative for samples. The second inflection point is consistent with β2M unfolding. b) Summary of Tm values for the first inflection point called by Prometheus software for these samples. […]

[2] = test system: NKG2C+ NK cells; assay: NK cell activation assay with peptide-pulsed RMA-S/HLA-E cells; assay type: cell-based, human; conditions: RMA-S/HLA-E target cells, 300 µM peptide ([…] µM BFAR263-271), E:T 2:1, 6 h, flow cytometry, n = 3 (n = 2 for some) donors
Procedure: Fig. 4 NK cell stimulation assays. Assessment of effects of peptides on NK cell activity through incubation of NK cells, peptides, and (A) K562/HLA-E or (B) RMA-S/HLA-E target cells. […] Replicates for individual peptides are from different donors, with solid black lines indicating mean values. […] Representative gating for NKG2A^+/NKG2C^- and NKG2A^-/NKG2C^+ NK cells is shown in Supplemental Fig. 14. Source data are provided as a Source Data file.
In contrast to K562 cell lines which are targets for human NK cells, RMA-S cells (a TAP-deficient mouse cell line)[48] are inert to human NK cells and thus will not activate NK cells absent engagement of an activating receptor on the NK cells. […] We performed additional NK cell activation assays with RMA-S/HLA-E cells (Fig. 4B).
All analyses of human data were carried out in compliance with the relevant ethical regulations. Healthy blood donors gave informed consent at DRK Blutspendedienst Nord-Ost, Dresden, Germany, and buffy coats were obtained as approved by Charité ethics committee (EA4/059/17). PBMCs were isolated from human CMV-seropositive buffy coats by density centrifugation over Ficoll Paque Plus (GE Healthcare) and screened for the presence of NKG2C^+ NK cell expansions by flow cytometry to have sufficient frequencies of single-positive cells for parallel assessment of activation and inhibition via HLA-E[47]. Total NK cells from donors with NKG2C^+ expansions (>10% NKG2A^-/NKG2C^+ NK cells) were enriched with CD56 microbeads (Miltenyi Biotec) and cryopreserved in FBS with 10% v/v DMSO. After thawing, NK cells were washed with complete medium, stained with antibodies and Fixable Viability Dye eFluor 780 (Thermo Fisher) for 15 min at 4 °C in PBS, sorted as viable CD56^+ CD3^− cells, and rested in complete media overnight. […] Brefeldin A and Monensin (BD Biosciences) were added after a 1 h culture period. After an additional 5 h, the stimulation was stopped by centrifugation at 4 °C. Cells underwent surface staining, followed by fixation and intracellular staining using Inside Stain Kit (Miltenyi Biotec). Samples were analyzed by flow cytometry on an LSR Fortessa (BD Biosciences). Inhibition of NKG2A^+ NK cells and activation of NKG2C^+ NK cells was assessed by gating on the respective single-positive populations (Supplemental Fig. 14). Antibodies are listed in Supplemental Table 1: anti-human CD56 PE/Dazzle 594 (1:200 dilution), CD3 APC-eFluor 780 (1:50 dilution), anti-human CD159a (NKG2A) Biotin REAfinity (1:50 dilution), anti-human CD159c (NKG2C) PE REAfinity (1:100 dilution), anti-human CD107a (LAMP-1) Alexa Fluor 488 (1:400 dilution), anti-human IFN-γ PE-Vio 770 REAfinity (1:50 dilution), anti-human TNF-α Brilliant Violet 605 (1:50 dilution), anti-human CCL3 (MIP-1α) REAfinity (1:25 dilution).

| Sequence | Tm [1] [°C] | NKG2C-mediated NK cell activation [2] |
| --- | --- | --- |
| VMAPRTLFL [positive control] | 51.5 | most potent activating peptide |
| VNPGRSLFL [BFAR263-271, human peptide from Bifunctional apoptosis regulator] | 38.5 | activation similar to the weaker positive control ([…]) or between the two positive controls |
